Data set [1] is described as follows: Selectivity index, ratio of CC50 for human Hep G2.2.15 cells to IC50 for HBV e antigen secretion. In kind it is functional.
For data set [2], the system named is Hepatitis B virus. As to the kind of experiment: Antiviral activity against hepatitis B virus infected Hep G2.2.15 cells assessed as inhibition of HBsAg secretion. In kind it is functional, organism-based. Conditions: HepG2 2.2.15.
A short description of data set [3]: Selectivity index, ratio of CC50 for human Hep G2.2.15 cells to IC50 for HBV surface antigen secretion. The data set is classed as functional.
The subject of data set [4] is Hepatitis B virus. The data set can be described thus: Antiviral activity against hepatitis B virus infected Hep G2.2.15 cells assessed as inhibition of HBeAg secretion. Particulars: HepG2 2.2.15. In kind it is functional, organism-based.
A short description of data set [5]: Cytotoxicity against human Hep G2.2.15 cells. The data set is classed as cell-based, HepG2 2.2.15.

This note sets out measurements from ChEMBL document CHEMBL1157443, “Synthesis and in vitro anti-hepatitis B virus activities of 4-aryl-6-chloro-quinolin-2-one and 5-aryl-7-chloro-1,4-benzodiazepine derivatives” (Bioorg Med Chem Lett, 2008).

As a reminder, the IC50 is the concentration at which inhibition is half-maximal. A word on the CC50: it is the concentration giving 50% cytotoxicity.

SMILES strings stand for the structures. Bounds are passed on as bounds.

Consider `CC(=O)OC1N=C(c2ccccc2)c2cc(Cl)ccc2NC1=O` (stereo not given), for which the “Ratio CC50/IC50” value in data set [1] is less than 1; in data set [3] it was 2.3. The IC50 was 292 µM with Hepatitis B virus [2] and greater than 4260 µM with Hepatitis B virus [4]. This molecule came in with a CC50 in data set [5] of 678 µM.
Taken in the same sequence, the figures for `CC(=O)Nc1c(-c2ccccc2F)c2cc(Cl)ccc2[nH]c1=O` were less than 1, less than 1, 141 µM, 79 µM and 44 µM.
The corresponding values for `O=c1cc(-c2ccccc2)c2cc(Cl)ccc2[nH]1` are less than 1, 2.6, 485 µM, greater than 4140 µM and 1250 µM.
As to `O=c1[nH]c2ccc(Cl)cc2c(-c2ccccc2F)c1CCO`, the results for the “Ratio CC50/IC50” value in data set [1] and in data set [3] were greater than 5.5 and greater than 16, respectively. Further, the IC50 in the data set with Hepatitis B virus [2] was 187 µM; in the data set with Hepatitis B virus [4] it was 545 µM. In addition, the CC50 in data set [5] was greater than 2990 µM.
Taken in the same sequence, the figures for `O=c1[nH]c2ccc(Cl)cc2c(-c2ccccc2Cl)c1CCO` were 3.4, 23, 74 µM, 449 µM and 1720 µM.
Taken in the same sequence, the figures for `O=c1cc(-c2ccccc2Cl)c2cc(Cl)ccc2[nH]1` were less than 1, 8, 752 µM, greater than 6000 µM and 6000 µM.
Consider `O=c1cc(-c2ccccc2F)c2cc(Cl)ccc2[nH]1`, for which the entries for the “Ratio CC50/IC50” value in data set [1] and in data set [3] were greater than 2.4 and greater than 1.9, respectively. Moreover, the figures for the IC50 in the data set with Hepatitis B virus [2] and with Hepatitis B virus [4] were 2840 µM and 2220 µM, respectively. In data set [5], this molecule registered a CC50 greater than 5460 µM.
For the molecule `CC(=O)OC1N=C(c2ccccc2F)c2cc(Cl)ccc2NC1=O` (stereo not given), the results for the “Ratio CC50/IC50” value in data set [1] and in data set [3] were less than 1 and 2.2, respectively. The IC50 with Hepatitis B virus [2] was determined as 160 µM; with Hepatitis B virus [4], 1220 µM. In data set [5], it took 344 µM to reach half-maximal cytotoxicity (CC50).
For `Nc1c(-c2ccccc2)c2cc(Cl)ccc2[nH]c1=O`, the results for the “Ratio CC50/IC50” value in data set [1] and in data set [3] were less than 1 and 6, respectively. Also, the IC50 in the data set on Hepatitis B virus [2] is 67 µM; with Hepatitis B virus [4], greater than 3990 µM. The molecule further yielded a CC50 in data set [5] of 399 µM.
The corresponding values for `Nc1c(-c2ccccc2F)c2cc(Cl)ccc2[nH]c1=O` are less than 1, 14, 56 µM, greater than 3610 µM and 767 µM.
Taken in the same sequence, the figures for `CC(=O)Nc1c(-c2ccccc2)c2cc(Cl)ccc2[nH]c1=O` were less than 1, 1.1, 208 µM, 1870 µM and 239 µM.
The corresponding values for `Nc1c(-c2ccccc2Cl)c2cc(Cl)ccc2[nH]c1=O` are less than 1, 1, 341 µM, greater than 5470 µM and 341 µM.
For `O=C1CN2OC2(c2ccccc2)c2cc(Cl)ccc2N1` (stereo not given), the “Ratio CC50/IC50” value was less than 1 in data set [1] and 1.3 in data set [3]. Moreover, the IC50 was 728 µM with Hepatitis B virus [2] and greater than 3280 µM with Hepatitis B virus [4]. Also, it took 946 µM to reach half-maximal cytotoxicity in data set [5] (CC50).
Taken in the same sequence, the figures for `O=C1CN2OC2(c2ccccc2F)c2cc(Cl)ccc2N1` (stereo not given) were less than 1, 1.8, 195 µM, greater than 3260 µM and 346 µM.
The corresponding values for `CC(=O)OC1N=C(c2ccccc2Cl)c2cc(Cl)ccc2NC1=O` (stereo not given) are less than 1, less than 1, 167 µM, 1940 µM and 154 µM.
Taken in the same sequence, the figures for `O=c1[nH]c2ccc(Cl)cc2c(-c2ccccc2)c1CCO` were greater than 5.2, greater than 16, 300 µM, 950 µM and greater than 4910 µM.
Consider `CC(=O)Nc1c(-c2ccccc2Cl)c2cc(Cl)ccc2[nH]c1=O`, for which the “Ratio CC50/IC50” value in data set [1] is on record as 2.6; in data set [3] it was 1.6. In addition, the IC50 is 129 µM in the data set on Hepatitis B virus [2] and 80 µM with Hepatitis B virus [4]. The molecule further had a CC50 in data set [5] of 208 µM.
The corresponding values for `O=C1CN2OC2(c2ccccc2Cl)c2cc(Cl)ccc2N1` (stereo not given) are less than 1, less than 1, 355 µM, 4490 µM and 302 µM.
Taken in the same sequence, the figures for `O=C1CN=C(c2ccccc2F)c2cc(Cl)ccc2N1` were less than 1, less than 1, 294 µM, 5360 µM and 183 µM.
The corresponding values for `O=C1CN=C(c2ccccc2Cl)c2cc(Cl)ccc2N1` [DELORAZEPAM] are less than 1, less than 1, 76 µM, 4080 µM and 76 µM.
For `Nc1ccn([C@@H]2CS[C@H](CO)O2)c(=O)n1` [LAMIVUDINE], the “Ratio CC50/IC50” value is 1.2 in data set [1] and 2.6 in data set [3]. This molecule registered a CC50 in data set [5] of 30000 µM.
In the case of `O=C1CN=C(c2ccccc2)c2cc(Cl)ccc2N1` [NORDAZEPAM], the IC50 in the data set on Hepatitis B virus [2] came out at 255 µM; in the data set on Hepatitis B virus [4], 835 µM.
